From patent publication US12263248B2, “Compounds and compositions for intracellular delivery of therapeutic agents” (ModernaTX, Inc., priority 2018, dated 2025)
Marks after values point to notes of the source that are not given here.

What was measured:
IP-10 = experiment: Cytokine induction in rats after intravenous administration; assay type: in vivo, rat; settings: for IP-10 induction: rat, 48 hours after administration; for IP-10: rats, 2.0 mpk, 6 hours, hEPO nanoparticle compositions
Protocol: The expression of hEPO and cytokine induction in rats intravenously administered a nanoparticle composition at a dose of 2.0 mpk was measured at 6 h.
(§1) Table 19A summarizes the hEPO expression, IP-10 induction, liver and spleen levels, and alanine aminotransferase (ALT) and aspartate aminotransferase (AST) measured upon intravenous administration of formulations including Compounds 48, 49, and 50 to rat at 0.2 and 2 mpk and hEPO mRNA. hEPO concentrations were measured 6 hours after administration, while cytokine induction and liver and spleen levels were measured 48 hours after administration. hEPO and IP-10 concentrations are presented in pg/ml, while liver levels are provided in ng/g. ALT and AST levels are presented in international units.

[1] = Residual lipid levels in rat liver and spleen (UPLC-MS); assay type: in vivo; settings: for % Lipid Remaining in liver, 48 h: assuming 300 g rat and 15 g liver; for % dose remaining Rat liver tissue, 48 h: Sprague Dawley rat liver 48 h after 2 mg/kg bolus dose mRNA; for % remaining dose in liver, 48 h: 2.0 mpk
In short: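 Rats received a single intravenous dose of lipid nanoparticle composition, and liver tissue was later collected to quantify residual lipid. Weighed tissue was homogenized in Milli-Q water (900 μL per 100 mg tissue) using an Omni probe homogenizer. 50 μL aliquots were mixed with 400 μL spiking solution, vortexed, centrifuged, and analyzed by UPLC on a C8 column with positive-mode ESI detection on a Sciex API5500 mass spectrometer.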

[2] = ALT and AST after intravenous administration to rat (Table 19A); assay type: in vivo
Protocol: as §1

hEPO mRNA [3] = experiment: hEPO expression and cytokine induction after intravenous administration to mice; assay type: in vivo; settings: for hEPO expression 3 h / Average hEPO concentration (pg/ml, 6 h) / Cytokine expression IL-6 (6 h) / Cytokine expression IP-10 (6 h) / hEPO expression 6 h / Fold increase in hEPO concentration relative to MC3 / hEPO expression 24 h: intravenous; for Average hEPO concentration (pg/ml, 6 h) / Cytokine expression IL-6 (6 h) / Cytokine expression IP-10 (6 h) / hEPO expression 6 h / Fold increase in hEPO concentration relative to MC3: 6 h; for Fold increase in hEPO concentration relative to MC3: Table 12
Protocol: The expression of hEPO and cytokine induction in mice intravenously administered a nanoparticle composition at a dose of 0.5 mpk were measured at 3, 6, and 24 hours. […] The expression of hEPO in mice intramuscularly administered a nanoparticle composition from Table 1B at a dose of 0.01 mpk were measured at 3, 6, and 24 hours.
Blood collection and analysis for hEPO. Blood was collected from mice or rats via the tail vein and hEPO concentrations were determined using a hEPO ELISA assay.

sC5b-9 = experiment: Complement activation in vitro (sC5b-9 levels); assay type: cell-based; settings: human cells contacted in vitro
Protocol: Complement activation assists in the clearance of pathogens from an organism. As it is undesirable that a subject's body recognize a nanoparticle composition as a foreign invader, low complement system activation upon administration of such a composition is preferred. The complex sC5b-9 is a marker for the activation of the complement system. Thus, human cells were contacted in vitro with nanoparticle compositions according to Table 1A and were evaluated for sC5b-9 levels.

[4] = Lipid clearance: lipid level in mouse liver tissue (LC-MS/MS); assay type: in vivo; settings: for % dose remaining Mouse liver tissue, 24 h: CD-1 mouse liver 24 h after 0.5 mg/kg bolus dose mRNA, n = 5 ± S.D.; for % Dose Remaining in Liver 6 h: Table 3D
Protocol: Quantification of Lipid by LC-MS/MS: Liver samples were homogenized following addition of 19 eq. (w/v) of water (DF=20). Protein was precipitated and analyzed against calibration standards prepared in matching blank. Chromatographic separation and quantification was accomplished with a LC-MS/MS System. Samples were injected and separated via HPLC A triple-quadrupole MS/MS system operated in positive ion mode was used for signal detection.

hEPO mRNA [5] = experiment: hEPO expression after subcutaneous administration to mice; assay type: in vivo, female CD-1 mice; settings: for Novel lipid/MC3 expression ratio, 6 hr. time point, s.c. hEPO 0.5 mpk: relative to MC3
In short: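 Lipid nanoparticle formulations carrying hEPO or luciferase mRNA were given subcutaneously at 0.5 mpk to female CD-1 mice. Whole-body luminescence imaging was done at 3, 6 and 24 h. Liver, spleen and injection-site expression were assessed ex vivo at 24 h.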

[6] = Chemical stability of lipids in ethanol (lipid purity); assay type: physicochemical
In short: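 Lipid chemical stability was assessed as lipid purity after storage in ethanol at room temperature and at 37° C.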

[7] = rat, intravenous, 0.2 mpk, 48 hours, Table 19A
[8] = rat, intravenous, 2 mpk, 48 hours, Table 19A

Compound: CCCCCCCCC(CCC)OC(=O)CCCCCCCN(CCO)CCCCCCCC(=O)OC(CCCCCCCC)CCCCCCCC (centres unmarked) [Compound 50, dodecan-4-yl 8-((8-(heptadecan-9-yloxy)-8-oxooctyl)(2-hydroxyethyl)amino)octanoate]
- IP-10 induction (IP-10; 0.2 mpk): 20 pg/mL
- IP-10 induction (IP-10; 2 mpk): 1065 pg/mL
- % Lipid Remaining in liver, 48 h ([1]; rats, 2 mpk): 15.9%
- ALT ([2]; 0.2 mpk): 59.2 international units
- AST ([2]; 0.2 mpk): 143.2 international units
- ALT ([2]; 2 mpk): 78.8 international units
- AST ([2]; 2 mpk): 158.4 international units

Compound: CCCCC/C=C\C/C=C\CCCCCCCCC(CCCCCCCC/C=C\C/C=C\CCCCC)OC(=O)CCCN(C)C [MC3, DLin-MC3-DMA, reference compound]
- hEPO expression 3 h (hEPO mRNA [3]; mice, 0.5 mpk): 1.57e+06 pg/mL
- Average hEPO concentration (pg/ml, 6 h) (hEPO mRNA [3]; mice, 0.5 mpk): 1.83e+06 pg/mL
- Cytokine expression IL-6 (6 h) (hEPO mRNA [3]; mice, 0.5 mpk): 19.85 pg/mL
- Cytokine expression IP-10 (6 h) (hEPO mRNA [3]; mice, 0.5 mpk): 117.94 pg/mL
- hEPO expression 6 h (hEPO mRNA [3]; mice, 0.5 mpk): 1.83e+06 pg/mL
- Fold increase in hEPO concentration relative to MC3 (hEPO mRNA [3]; mice, 0.5 mpk): 1
- hEPO expression 24 h (hEPO mRNA [3]; mice, 0.5 mpk): 810000 pg/mL
- Fold increase in sC5b-9 levels versus saline (sC5b-9): 0.73
- IP-10 induction (IP-10; 0.2 mpk): 2 pg/mL
- IP-10 induction (IP-10; 2 mpk): 596 pg/mL
- IP-10 (IP-10): 688.3 pg/mL
- % dose remaining Rat liver tissue, 48 h [1]: 61^e %
- % dose remaining, liver, 24 h ([1]; Table 19B, liver, 24 h): 44%
- % lipid remaining in liver after 48 hours ([1]; liver, 48 hours): 87%
- Liver level [1, 7]: 11300 ng/g
- Spleen level [1, 7]: 0.74 ng/g
- Liver level [1, 8]: 140520 ng/g
- Spleen level [1, 8]: 0.65 ng/g
- Liver level ([1]; rats, 0.2 mpk, after 48 h): 25033 ng/g
- Spleen level ([1]; rats, 0.2 mpk, after 48 h): 9440 ng/g
- % Lipid Remaining in liver, 48 h ([1]; rats, 2 mpk): 87%
- Liver level ([1]; rats, 2 mpk, after 48 h): 285333 ng/g
- Spleen level ([1]; rats, 2 mpk, after 48 h): 129000 ng/g
- lipid remained in the liver after 48 hours ([1]; rats, i.v., 0.2 mpk or 2.0 mpk): greater than 60%
- % remaining dose in liver, 48 h ([1]; rats, intravenous): 74%
- ALT ([2]; 0.2 mpk): 63.6 international units
- AST ([2]; 0.2 mpk): 134.8 international units
- ALT ([2]; 2 mpk): 79.6 international units
- AST ([2]; 2 mpk): 139.0 international units
- % dose remaining Mouse liver tissue, 24 h [4]: 71 ± 27%
- % Dose Remaining in Liver 6 h ([4]; second column (head also says 6 h), intravenous): 54%
- % Dose Remaining in Liver 6 h ([4]; intravenous): 80%
- Mouse liver tissue level (ng/g) 6 h ([4]; Table 3E, intravenous, 6 h): 85400 ng/g
- Mouse liver tissue level (ng/g) 24 h ([4]; Table 3E, intravenous, 24 h): 67433 ng/g
- % Remaining dose at 6 h ([4]; Table 3E, mouse liver, 6 h): >98%
- % Remaining dose at 24 h ([4]; Table 3E, mouse liver, 24 h): 79.7%

Compound: CCCCCCCCC(CC)OC(=O)CCCCCCCN(CCO)CCCCCCCC(=O)OC(CCCCCCCC)CCCCCCCC (centres unmarked) [Compound 49, heptadecan-9-yl 8-((2-hydroxyethyl)(8-oxo-8-(undecan-3-yloxy)octyl)amino)octanoate]
- IP-10 induction (IP-10; 0.2 mpk): 66 pg/mL
- IP-10 induction (IP-10; 2 mpk): 932 pg/mL
- % Lipid Remaining in liver, 48 h ([1]; rats, 2 mpk): 12.6%
- ALT ([2]; 0.2 mpk): 54.0 international units
- AST ([2]; 0.2 mpk): 99.4 international units
- ALT ([2]; 2 mpk): 77.8 international units
- AST ([2]; 2 mpk): 132.4 international units
- Novel lipid/MC3 expression ratio, 6 hr. time point, s.c. hEPO 0.5 mpk (hEPO mRNA [5]): 8.01

Compound: CCCCCCCCC(C)OC(=O)CCCCCCCN(CCO)CCCCCCCC(=O)OC(CCCCCCCC)CCCCCCCC (centres unmarked) [Compound 48, decan-2-yl 8-((8-(heptadecan-9-yloxy)-8-oxooctyl)(2-hydroxyethyl)amino)octanoate]
- IP-10 induction (IP-10; 0.2 mpk): 134 pg/mL
- IP-10 induction (IP-10; 2 mpk): 970 pg/mL
- % lipid remaining in liver after 48 hours ([1]; liver, 48 hours): 11.4%
- % Lipid Remaining in liver, 48 h ([1]; rats, 2 mpk): 7.22%
- ALT ([2]; 0.2 mpk): 59.6 international units
- AST ([2]; 0.2 mpk): 140.8 international units
- ALT ([2]; 2 mpk): 66.0 international units
- AST ([2]; 2 mpk): 131.2 international units
- Novel lipid/MC3 expression ratio, 6 hr. time point, s.c. hEPO 0.5 mpk (hEPO mRNA [5]): 8.09

Compound: CCCCCCCCCOC(=O)CCCCCCCN(CCO)CCCCCCCC(=O)OC(CCCCCCCC)CCCCCCCC [Compound 18, Heptadecan-9-yl 8-((2-hydroxyethyl)(8-(nonyloxy)-8-oxooctyl)amino)octanoate]
- hEPO expression and average total flux compared with MC3 (hEPO mRNA [3]; Table 12 comparison, in words): outperform MC3
- hEPO concentrations compared with MC3 formulations (hEPO mRNA [3]; mice, i.v., 0.5 mpk, 3, 6 and 24 hours): higher hEPO concentrations than MC3 formulations
- hEPO expression 3 h (hEPO mRNA [3]; mice, 0.5 mpk): 3e+06 pg/mL
- Average hEPO concentration (pg/ml, 6 h) (hEPO mRNA [3]; mice, 0.5 mpk): 3.38e+06 pg/mL
- Cytokine expression IL-6 (6 h) (hEPO mRNA [3]; mice, 0.5 mpk): 10.16 pg/mL
- Cytokine expression IP-10 (6 h) (hEPO mRNA [3]; mice, 0.5 mpk): 299.93 pg/mL
- hEPO expression 6 h (hEPO mRNA [3]; mice, 0.5 mpk): 3.38e+06 pg/mL
- Fold increase in hEPO concentration relative to MC3 (hEPO mRNA [3]; mice, 0.5 mpk): 1.85
- hEPO expression 24 h (hEPO mRNA [3]; mice, 0.5 mpk): 1.8e+06 pg/mL
- Fold increase in sC5b-9 levels versus saline (sC5b-9): 1.28
- sC5b-9 levels relative to saline (sC5b-9; in words): somewhat increase
- IP-10 (IP-10): 517.3 pg/mL
- % dose remaining Rat liver tissue, 48 h [1]: 0.02^e %
- % lipid remaining in liver after 48 hours ([1]; liver, 48 hours): 0.018%
- % Lipid Remaining in liver, 48 h ([1]; rats, 2 mpk): 0.018%
- % remaining dose in liver, 48 h ([1]; rats, intravenous): <1%
- Lipid Purity ([6]; t = 0): 94.37%
- Lipid Purity ([6]; t = 96 h, 25° C.): 94.71%
- Lipid Purity ([6]; t = 96 h, 37° C.): 95.01%
- % dose remaining Mouse liver tissue, 24 h [4]: 0%
- original dose remaining in liver tissue 24 hours post dose ([4]; mice, intravenous): no lipid detected
- hEPO expression Lipid/MC3 ratio, 6 hr. (hEPO mRNA [5]; 0.5 mpk, 6 hr.): 2.63
- hEPO expression Lipid/MC3 ratio, AUC (hEPO mRNA [5]; 0.5 mpk, AUC): 1.88
